Drawing on patent publication US9409884B2 (Rigel Pharmaceuticals, Inc., priority 2012, dated 2016), this text covers EC50 for 28 molecules.

One assay concerns the target AMPK. Description: AMPK activation, enzyme-linked immunosorbent assay. In kind it is biochemical. The note with it: Table 9, compounds of Table 2. Put shortly: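 Read-out: ELISA, used to detect compound-driven activation of AMPK.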
Take `NC(=O)c1ccc(CN2CCc3[nH]c4ccc(C(=O)NC5CCN(Cc6ccc(C(F)(F)F)cc6)CC5)cc4c3C2)cc1` [Compound 2-47, 2-(4-carbamoylbenzyl)-N-(1-(4-(trifluoromethyl)benzyl)piperidin-4-yl)-2,3,4,5-tetrahydro-1H-pyrido[4,3-b]indole-8-carboxamide]: the EC50 (in general, the concentration at which the effect is half-maximal) is 10 to 50 µM. Turning to `NC(=O)c1ccc(CN2CCc3[nH]c4ccc(C(=O)NC5CCN(Cc6ccc(F)cc6)CC5)cc4c3C2)cc1` [Compound 2-48, 2-(4-carbamoylbenzyl)-N-(1-(4-fluorobenzyl)piperidin-4-yl)-2,3,4,5-tetrahydro-1H-pyrido[4,3-b]indole-8-carboxamide], the EC50 is > 100 µM. On the same count and under the same terms, to `NC(=O)c1ccc(CN2CCC(NC(=O)c3ccc4[nH]c5c(c4c3)CN(Cc3ccc(C(N)=O)cc3)CC5)CC2)cc1` [Compound 2-49, 2-(4-carbamoylbenzyl)-N-(1-(4-carbamoylbenzyl)piperidin-4-yl)-2,3,4,5-tetrahydro-1H-pyrido[4,3-b]indole-8-carboxamide] belongs > 100 µM; to `O=C(NC1CCN(Cc2ccncc2)CC1)c1ccc2[nH]c3c(c2c1)CN(Cc1ccc(C(F)(F)F)cc1)CC3` [Compound 2-50, N-(1-(pyridin-4-ylmethyl)piperidin-4-yl)-2-(4-(trifluoromethyl)benzyl)-2,3,4,5-tetrahydro-1H-pyrido[4,3-b]indole-8-carboxamide], < 0.5 µM. In turn, `O=C(NC1CCN(C(=O)c2ccncc2)CC1)c1ccc2[nH]c3c(c2c1)CN(Cc1ccc(C(F)(F)F)cc1)CC3` [Compound 2-51, N-(1-isonicotinoylpiperidin-4-yl)-2-(4-(trifluoromethyl)benzyl)-2,3,4,5-tetrahydro-1H-pyrido[4,3-b]indole-8-carboxamide] returned an EC50 of 0.5 to 1 µM.

The molecule `NC(=O)c1ccc(CN2CCC(NC(=O)c3ccc4[nH]c5c(c4c3)CN(Cc3ccc(C(F)(F)F)cc3)CC5)CC2)cc1` [Compound 2-52, N-(1-(4-carbamoylbenzyl)piperidin-4-yl)-2-(4-(trifluoromethyl)benzyl)-2,3,4,5-tetrahydro-1H-pyrido[4,3-b]indole-8-carboxamide] yielded an EC50 of 1 to 5 µM.

As for `Cn1cnc(CN2CCC(NC(=O)c3ccc4[nH]c5c(c4c3)CN(Cc3ccc(C(F)(F)F)cc3)CC5)CC2)c1` [Compound 2-53, N-(1-((1-methyl-1H-imidazol-4-yl)methyl)piperidin-4-yl)-2-(4-(trifluoromethyl)benzyl)-2,3,4,5-tetrahydro-1H-pyrido[4,3-b]indole-8-carboxamide], the EC50 was in the range of 10 to 50 µM. For the molecule `O=C(NC1CCN(Cc2cocn2)CC1)c1ccc2[nH]c3c(c2c1)CN(Cc1ccc(C(F)(F)F)cc1)CC3` [Compound 2-54, N-(1-(oxazol-4-ylmethyl)piperidin-4-yl)-2-(4-(trifluoromethyl)benzyl)-2,3,4,5-tetrahydro-1H-pyrido[4,3-b]indole-8-carboxamide], the concentration for a half-maximal effect (EC50) was < 0.5 µM.

The assay is the same for the next values; noted with them: Table 10, compounds of Table 3.
With `CC(C)(C)OC(=O)N1CCC(NC(=O)c2nc3ccc(OC4CCN(c5ccc(C(F)(F)F)cc5)CC4)cc3o2)CC1` [Compound 3-1, tert-butyl 4-(6-(1-(4-(trifluoromethyl)phenyl)piperidin-4-yloxy)benzo[d]oxazole-2-carboxamido)piperidine-1-carboxylate], the EC50 was < 0.1 µM. Consider `N#Cc1ccc(CN2CCC(NC(=O)c3nc4ccc(OC5CCN(c6ccc(C(F)(F)F)cc6)CC5)cc4o3)CC2)cc1` [Compound 3-2, N-(1-(4-cyanobenzyl)piperidin-4-yl)-6-(1-(4-(trifluoromethyl)phenyl)piperidin-4-yloxy)benzo[d]oxazole-2-carboxamide], for which the EC50 is < 0.1 µM.

For the molecule `O=C(NC1CCN(Cc2ccncc2)CC1)c1nc2ccc(OC3CCN(c4ccc(C(F)(F)F)cc4)CC3)cc2o1` [Compound 3-3, N-(1-(pyridin-4-ylmethyl)piperidin-4-yl)-6-(1-(4-(trifluoromethyl)phenyl)piperidin-4-yloxy)benzo[d]oxazole-2-carboxamide], the EC50 was < 0.1 µM. Regarding `O=C(NC1CCN(C(=O)c2ccc(F)cc2)CC1)c1nc2ccc(OC3CCN(c4ccc(C(F)(F)F)cc4)CC3)cc2o1` [Compound 3-4, N-(1-(4-fluorobenzoyl)piperidin-4-yl)-6-(1-(4-(trifluoromethyl)phenyl)piperidin-4-yloxy)benzo[d]oxazole-2-carboxamide], the EC50 was < 0.1 µM.

Molecule `O=C(NC1CCNCC1)c1nc2ccc(OC3CCN(c4ccc(C(F)(F)F)cc4)CC3)cc2o1` [Compound 3-5, N-(piperidin-4-yl)-6-(1-(4-(trifluoromethyl)phenyl)piperidin-4-yloxy)benzo[d]oxazole-2-carboxamide] had an EC50 of 10 to 100 µM. As to `N#Cc1ccc(C(=O)N2CCC(NC(=O)c3nc4ccc(OC5CCN(c6ccc(C(F)(F)F)cc6)CC5)cc4o3)CC2)cc1` [Compound 3-6, N-(1-(4-cyanobenzoyl)piperidin-4-yl)-6-(1-(4-(trifluoromethyl)phenyl)piperidin-4-yloxy)benzo[d]oxazole-2-carboxamide], the EC50 was < 0.1 µM. `O=C(c1nc2ccc(OC3CCN(c4ccc(C(F)(F)F)cc4)CC3)cc2o1)N1CC2CC1CN2Cc1ccncc1` (stereo not shown) [Compound 3-8, (5-(pyridin-4-ylmethyl)-2,5-diazabicyclo[2.2.1]heptan-2-yl)(6-(1-(4-(trifluoromethyl)phenyl)piperidin-4-yloxy)benzo[d]oxazol-2-yl)methanone] had an EC50 of 0.1 to 1 µM. For the molecule `NC(=O)c1ccc(CN2CC3CC2CN3C(=O)c2nc3ccc(OC4CCN(c5ccc(C(F)(F)F)cc5)CC4)cc3o2)cc1` (stereo not shown) [Compound 3-9, 4-((5-(6-(1-(4-(trifluoromethyl)phenyl)piperidin-4-yloxy)benzo[d]oxazole-2-carbonyl)-2,5-diazabicyclo[2.2.1]heptan-2-yl)methyl)benzamide], the EC50 was 0.1 to 1 µM.

`N#Cc1ccc(CN2CC3CC2CN3C(=O)c2nc3ccc(OC4CCN(c5ccc(C(F)(F)F)cc5)CC4)cc3o2)cc1` (stereo not shown) [Compound 3-10, 4-((5-(6-(1-(4-(trifluoromethyl)phenyl)piperidin-4-yloxy)benzo[d]oxazole-2-carbonyl)-2,5-diazabicyclo[2.2.1]heptan-2-yl)methyl)benzonitrile] came in with a concentration giving a half-maximal response (EC50) of 0.1 to 1 µM. The same measure, in the same setting: next, `O=C(c1ccncc1)N1CC2CC1CN2C(=O)c1nc2ccc(OC3CCN(c4ccc(C(F)(F)F)cc4)CC3)cc2o1` (stereo not shown) [Compound 3-11, (5-isonicotinoyl-2,5-diazabicyclo[2.2.1]heptan-2-yl)(6-(1-(4-(trifluoromethyl)phenyl)piperidin-4-yloxy)benzo[d]oxazol-2-yl)methanone]: 0.1 to 1 µM; `N#Cc1ccc(C(=O)N2CC3CC2CN3C(=O)c2nc3ccc(OC4CCN(c5ccc(C(F)(F)F)cc5)CC4)cc3o2)cc1` (stereo not shown) [Compound 3-12, 4-(5-(6-(1-(4-(trifluoromethyl)phenyl)piperidin-4-yloxy)benzo[d]oxazole-2-carbonyl)-2,5-diazabicyclo[2.2.1]heptane-2-carbonyl)benzonitrile]: < 0.1 µM. Still for that read-out and setting: to `O=C(c1ccc(F)cc1)N1CC2CC1CN2C(=O)c1nc2ccc(OC3CCN(c4ccc(C(F)(F)F)cc4)CC3)cc2o1` (stereo not shown) [Compound 3-13, (5-(4-fluorobenzoyl)-2,5-diazabicyclo[2.2.1]heptan-2-yl)(6-(1-(4-(trifluoromethyl)phenyl)piperidin-4-yloxy)benzo[d]oxazol-2-yl)methanone] belongs < 0.1 µM; to `CC(C)(C)OC(=O)N1CCC(NC(=O)c2nc3ccc(OC4CCN(c5ccc(C(F)(F)F)cc5)CC4)cc3s2)CC1` [Compound 3-14, tert-butyl 4-(6-(1-(4-(trifluoromethyl)phenyl)piperidin-4-yloxy)benzo[d]thiazole-2-carboxamido)piperidine-1-carboxylate], 1 to 10 µM; to `O=C(NC1CCN(Cc2ccncc2)CC1)c1nc2ccc(OC3CCN(c4ccc(C(F)(F)F)cc4)CC3)cc2s1` [Compound 3-15, N-(1-(pyridin-4-ylmethyl)piperidin-4-yl)-6-(1-(4-(trifluoromethyl)phenyl)piperidin-4-yloxy)benzo[d]thiazole-2-carboxamide], 0.1 to 1 µM. `N#Cc1ccc(CN2CCC(NC(=O)c3nc4ccc(OC5CCN(c6ccc(C(F)(F)F)cc6)CC5)cc4s3)CC2)cc1` [Compound 3-16, N-(1-(4-cyanobenzyl)piperidin-4-yl)-6-(1-(4-(trifluoromethyl)phenyl)piperidin-4-yloxy)benzo[d]thiazole-2-carboxamide] came in with an EC50 of 0.1 to 1 µM. Consider `O=C(NC1CCN(Cc2ccncc2)CC1)c1cn2ccc(OC3CCN(c4ccc(C(F)(F)F)cc4)CC3)cc2n1` [Compound 3-17, N-(1-(pyridin-4-ylmethyl)piperidin-4-yl)-7-(1-(4-(trifluoromethyl)phenyl)piperidin-4-yloxy)imidazo[1,2-a]pyridine-2-carboxamide], for which the EC50 is < 0.1 µM. Still for that read-out and setting: next, `N#Cc1ccc(CN2CCC(NC(=O)c3cn4ccc(OC5CCN(c6ccc(C(F)(F)F)cc6)CC5)cc4n3)CC2)cc1` [Compound 3-18, N-(1-(4-cyanobenzyl)piperidin-4-yl)-7-(1-(4-(trifluoromethyl)phenyl)piperidin-4-yloxy)imidazo[1,2-a]pyridine-2-carboxamide]: < 0.1 µM.

Molecule `CC(C)(C)OC(=O)N1CCC(NC(=O)c2cnc(OC3CCN(c4ccc(C(F)(F)F)cc4)CC3)cn2)CC1` [Compound 3-19, tert-butyl 4-(5-(1-(4-(trifluoromethyl)phenyl)piperidin-4-yloxy)pyrazine-2-carboxamido)piperidine-1-carboxylate] yielded an EC50 of 1 to 10 µM.

For `O=C(NC1CCN(Cc2ccncc2)CC1)c1cnc(OC2CCN(c3ccc(C(F)(F)F)cc3)CC2)cn1` [Compound 3-21, N-(1-(pyridin-4-ylmethyl)piperidin-4-yl)-5-(1-(4-(trifluoromethyl)phenyl)piperidin-4-yloxy)pyrazine-2-carboxamide], the EC50 is < 0.1 µM. `N#Cc1ccc(CN2CCC(NC(=O)c3cnc(OC4CCN(c5ccc(C(F)(F)F)cc5)CC4)cn3)CC2)cc1` [Compound 3-22, N-(1-(4-cyanobenzyl)piperidin-4-yl)-5-(1-(4-(trifluoromethyl)phenyl)piperidin-4-yloxy)pyrazine-2-carboxamide]: the EC50 was < 0.1 µM.
